Data on six compounds can be found in patent US4704462A, “Substituted 2,3,3a,6-tetrahydro-6-oxobenzofuran derivative useful as PAF antagonist” (Merck & Co., Inc., priority 1985, dated 1987).

In one assay the target is T1, PAF Receptor (Oryctolagus cuniculus, UniProt G1TEI7).
T1 construct: from tissue
In words: % Inhibition of PAF Receptor (published bioassay, Table I). The class given is binding. From the text: See. T. Y. Shen et al., Proc. Nat. Acad. Sci., U.S.A., 82, 672 (1985); and S. B. Hwang et al., Biochem., 22, 4756 (1983).
% Inhibition of PAF Receptor by the Compounds of […]

The subject of the next assay is man. The settings on record: in man, 0.1 μg per site; cited from earlier work.

T1 sequence (G1TEI7 1-342): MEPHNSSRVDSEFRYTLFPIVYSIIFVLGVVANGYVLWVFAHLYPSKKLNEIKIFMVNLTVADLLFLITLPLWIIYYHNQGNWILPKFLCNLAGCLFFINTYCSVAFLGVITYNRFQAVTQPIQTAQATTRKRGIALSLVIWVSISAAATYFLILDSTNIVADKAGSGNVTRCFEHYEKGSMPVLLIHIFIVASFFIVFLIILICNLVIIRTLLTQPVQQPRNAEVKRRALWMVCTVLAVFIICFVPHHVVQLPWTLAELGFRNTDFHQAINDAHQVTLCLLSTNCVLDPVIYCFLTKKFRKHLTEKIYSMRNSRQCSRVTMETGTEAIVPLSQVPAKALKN

As to `CCCC1=C[C@@]2(OC)C(=CC1=O)O[C@H](c1ccc(OC)c(OC)c1)[C@@H]2C` [(2S,3S,3aS)-2-(3,4-dimethoxyphenyl)-3a-methoxy-3-methyl-5-n-propyl-2,3,3a,6-tetrahydro-6-oxo-benzofuran], the inhibition at 0.03 µM against PAF Receptor (Dose 0.03 μM) lay within 30 to 33%. Besides, the inhibition at 0.1 µM at PAF Receptor (Dose 0.1 μM) lay in the range of 58 to 59%. At PAF Receptor, this compound returned an inhibition at 0.3 µM of 73 to 76%, an inhibition at 1 µM of 83 to 89% and an inhibition at 5 µM of 90 to 95%.

Consider `CCCC1=C[C@]2(OC)C(=CC1=O)O[C@H](c1ccc(OC)c(OC)c1)[C@@H]2C` (single isomer, unassigned), for which, at PAF Receptor, testing at 1 µM gave an inhibition of 31% and at 5 µM the inhibition was 61%.

With `C=CCC1=C[C@]2(OCC)C(=CC1=O)O[C@H](c1ccc(OC)c(OC)c1)[C@@H]2C` [(2S,3S,3aR)-5-allyl-2-(3,4-dimethoxyphenyl)-3a-ethoxy-3-methyl-2,3,3a,6-tetrahydro-6-oxo-benzofuran], on PAF Receptor, the inhibition at 1 µM was 45% and 5 µM produced 73% inhibition.

Take “1-O-hexadecyl/octadecyl-2-O-acetyl-sn-glycero-3-phosphorylcholine [PAF]”: the “inflammatory response to intradermal PAF” value in the assay with man is given as “biphasic inflammatory response”.

On PAF Receptor, `C=CCC1=C2OC(c3ccc(OC)c(OC)c3)C(C)C2(OC)C=CC1=O` (centres unmarked) displayed an inhibition at 1 µM of 26% and an inhibition at 5 µM of 57%.

As to `C=CCC1=C[C@@]2(OCC)C(=CC1=O)O[C@H](c1ccc(OC)c(OC)c1)[C@@H]2C` [(2S,3S,3aS)-5-allyl-2-(3,4-dimethoxyphenyl)-3a-ethoxy-3-methyl-2,3,3a,6-tetrahydro-6-oxo-benzofuran], on PAF Receptor, the inhibition at 0.3 µM was 42% and testing at 1 µM gave an inhibition of 68%.

The inhibition is the share of the control response that was lost under treatment.
